The text below walks through data of patent US12338219B2, “Antimalarial agents” (Merck Sharp & Dohme LLC, priority 2019, dated 2025).

Each structure is given as a SMILES string. pEC50: −log10 of the molar value.

For one assay, the system named is parasites (ring stage parasites, parasite growth). Briefly: Parasite LDH growth assay (Parasite Assay), antiparasite potency. It is filed as cell-based. To be noted: 72 h, 72 hours growth, LDH readout; Table 3. As for the experimental part:
Assessing Antiparasite Potency in a Parasite LDH Growth Assay (Parasite Assay) The parasite stock was maintained at […] in RPMI-Hepes media buffered with sodium bicarbonate and supplemented with […]. […] On the day of assay set up, a blood smear of the parasite culture was Giemsa stained and counted. The parasitemia was adjusted to 0.7% rings and the haematocrit was diluted to 2% in RPMI-Hepes media buffered with sodium bicarbonate and supplemented with 500 heat inactivated human serum and 0.5% albumax. 30 ul of diluted parasites are then added into 10 ul of media+compound in pre-prepared Greiner TC assay plates. Parasite assay plates were placed in gassed humidified boxes in single layer and allowed to incubate at 37° C. for 72 hours. After 72 hours growth, assay plates are sealed with parafilm and frozen flat, in single file at −80° C. overnight. On the following day, assay plates are allowed to thaw at room temperature for 4 hours to which an LDH assay is performed to measure parasite growth.
In the case of `CCC1(CC)CC(=O)N([C@H](CCOC)[C@@H]2C[C@H]2C(=O)N[C@H]2CC(C)(C)Oc3ccccc32)C(=N)N1` [Example 1A], the pEC50 (commonly the negative decadic logarithm of the EC50, by convention in mol/L) was 9.00.
`CCC1(CC)CC(=O)N([C@H](CCOC)[C@@H]2C[C@H]2C(=O)N[C@@H]2CC(C)(C)Oc3ccccc32)C(=N)N1` [Example 1B] gave a pEC50 of 6.60.
Take `CCC1(CC)CC(=O)N([C@H](c2cccnc2)[C@@H]2C[C@H]2C(=O)N[C@H]2CC(C)(C)Oc3ccccc32)C(=N)N1` [Example 2, (1R,2R)-2-((S)-(4,4-diethyl-2-imino-6-oxotetrahydropyrimidin-1(2H)-yl)(pyridin-3-yl)methyl)-N—((S)-2,2-dimethylchroman-4-yl)cyclopropanecarboxamide]: the pEC50 was 9.05.
The same measure, in the same setting: the same measure for `CCC1(CC)CC(=O)N(C[C@H]2C[C@@H]2C(=O)N[C@@H](C)c2ccccc2)C(=N)N1` [Example 3A]: 6.63; for `CCC1(CC)CC(=O)N(C[C@@H]2C[C@H]2C(=O)N[C@@H](C)c2ccccc2)C(=N)N1` [Example 3B]: 6.82.
Turning to `CCC1(CC)CC(=O)N(C[C@H]2C[C@@H]2C(=O)N[C@H]2CCOc3ccccc32)C(=N)N1` [Example 4A], the pEC50 was 7.03.
Still for that read-out and setting: the same measure for `CCC1(CC)CC(=O)N(C[C@@H]2C[C@H]2C(=O)N[C@H]2CCOc3ccccc32)C(=N)N1` [Example 4B]: 7.59; for `CCC1(CC)CC(=O)N(CC2CC2C(=O)N[C@H]2CCOc3ccccc32)C(=N)N1` (some centres unmarked) [Example 4C]: 7.07; for `CCC1(CC)CC(=O)N(C[C@@H]2C[C@H]2C(=O)N[C@H]2CC(C)(C)Oc3ccccc32)C(=N)N1` [Example 5]: 7.31.
In the case of `CCC1(CC)CC(=O)N(C[C@H]2C[C@@H]2C(=O)N[C@@H]2c3ccccc3C[C@H]2O)C(=N)N1` [Example 6A], the pEC50 is 6.73.
Still for that read-out and setting: the same measure for `CCC1(CC)CC(=O)N(C[C@@H]2C[C@H]2C(=O)N[C@@H]2c3ccccc3C[C@H]2O)C(=N)N1` [Example 6B]: 6.57.
With `CCC1(CC)CC(=O)N(C[C@@H]2C[C@H]2C(=O)N[C@H]2CC(C)(C)Oc3ccc(F)cc32)C(=N)N1` [Example 7A], the pEC50 is 6.87. Compared with the last molecule, the pEC50 is 0.30 log units higher.
On the same count and under the same terms, in the case of `CCC1(CC)CC(=O)N(C[C@@H]2C[C@H]2C(=O)N[C@@H]2CC(C)(C)Oc3ccc(F)cc32)C(=N)N1` [Example 7B] it was 7.54.
Still for that read-out and setting: in the case of `CCC1(CC)CC(=O)N(C[C@@H]2C[C@H]2C(=O)N[C@H]2C[C@H](C(F)(F)F)Oc3ccccc32)C(=N)N1` [Example 8A] it was 7.43; in that of `CCC1(CC)CC(=O)N(C[C@@H]2C[C@H]2C(=O)N[C@@H]2C[C@@H](C(F)(F)F)Oc3ccccc32)C(=N)N1` [Example 8B], 8.28; in that of `CCC1(CC)CC(=O)N([C@H](c2cccnc2)[C@@H]2C[C@H]2C(=O)N[C@H]2CCOc3ccccc32)C(=N)N1` [Example 9], 8.16.
The same measure, in the same setting: the same measure for `CCC1(CC)CC(=O)N([C@H](c2cccnc2)[C@@H]2C[C@H]2C(=O)N[C@@H]2c3ccccc3C[C@H]2O)C(=N)N1` [Example 10]: 7.57; for `CCC1(CC)CC(=O)N([C@H](c2cccnc2)[C@@H]2C[C@H]2C(=O)N[C@H]2c3ccccc3OC(C)(C)[C@@H]2O)C(=N)N1` [Example 11A]: 8.39.
In the case of `CCC1(CC)CC(=O)N([C@H](c2cccnc2)[C@@H]2C[C@H]2C(=O)N[C@@H]2c3ccccc3OC(C)(C)[C@H]2O)C(=N)N1` [Example 11B], the pEC50 is 7.62. Against the preceding molecule, the pEC50 is 0.77 log units lower.
`CCC1(CC)CC(=O)N([C@H](c2cccnc2)[C@@H]2C[C@H]2C(=O)N[C@H]2C[C@H](C(F)(F)F)Oc3ccccc32)C(=N)N1` [Example 12] had a pEC50 of 9.05. Against the preceding molecule, the pEC50 is 1.43 log units higher.
Same read-out and setting: the same measure for `CCC1(CC)CC(=O)N([C@H](CCOC)[C@@H]2C[C@H]2C(=O)N[C@@H]2c3ccccc3C[C@H]2O)C(=N)N1` [Example 13]: 7.62; for `CCC1(CC)CC(=O)N([C@H](CCOC)[C@@H]2C[C@H]2C(=O)N[C@H]2C[C@H](C(F)(F)F)Oc3ccccc32)C(=N)N1` [Example 14]: 9.05.
`CCC1(CC)CC(=O)N(CC2C(C(=O)N[C@H]3CCOc4ccccc43)C2(F)F)C(=N)N1` (some centres unmarked) [Example 15A] gave a pEC50 of 6.62.
Same read-out and setting: in the case of `CCC1(CC)CC(=O)N(C[C@H]2C(C(=O)N[C@@H]3c4ccccc4OC(C)(C)[C@H]3O)C2(F)F)C(=N)N1` (some centres unmarked) [Example 18A] it was 7.41; in that of `CCC1(CC)CC(=O)N(C[C@@H]2[C@@H](C(=O)N[C@@H]3c4ccccc4OC(C)(C)[C@H]3O)C2(F)F)C(=N)N1` [Example 18B], 6.74.
Molecule `CCC1(CC)CC(=O)N([C@H](CCOC)[C@@H]2C[C@H]2C(=O)N[C@H]2c3ccccc3OCC2(C)C)C(=N)N1` [Example 19A] had a pEC50 of 7.55.
On the same count and under the same terms, the same measure for `CCC1(CC)CC(=O)N([C@H](CCOC)[C@@H]2C[C@H]2C(=O)N[C@@H]2c3ccccc3OCC2(C)C)C(=N)N1` [Example 19B]: 8.38.
On the same count and under the same terms, the same measure for `COCC[C@H]([C@@H]1C[C@H]1C(=O)N[C@H]1CC(C)(C)Oc2ccccc21)N1C(=N)N[C@](C)(C(C)C)CC1=O` [Example 20]: 8.28.
Molecule `COCC[C@H]([C@@H]1C[C@H]1C(=O)N[C@H]1CCOc2ccccc21)N1C(=N)N[C@](C)(C(C)C)CC1=O` [Example 22] had a pEC50 of 7.36.

Staying with this assay, now noted: 72 hours growth, LDH readout; Table 3.
In turn, `COCC1(C)CC(NC(=O)[C@@H]2C[C@H]2[C@@H](c2cccnc2)N2C(=N)NC(C)(C)CC2=O)c2ccccc2O1` (single isomer, unassigned) [Example 108C] gave a pEC50 of 8.22.
Molecule `COCC1(C)CC(NC(=O)[C@@H]2C[C@H]2[C@@H](c2cccnc2)N2C(=N)NC(C)(C)CC2=O)c2ccccc2O1` (single isomer, unassigned) [Example 108D] had a pEC50 of 8.07.
The molecule `CC1(C)CC(=O)N([C@H](c2cccnc2)[C@@H]2C[C@H]2C(=O)NC2CC(C)(C)Oc3ccc(C(F)(F)F)cc32)C(=N)N1` (single isomer, unassigned) [Example 109A] showed a pEC50 of 8.64.
Still for that read-out and setting: the same measure for `CC1(C)CC(=O)N([C@H](c2cccnc2)[C@@H]2C[C@H]2C(=O)NC2CC(C)(C)Oc3ccc(C(F)(F)F)cc32)C(=N)N1` (single isomer, unassigned) [Example 109B]: 9.00; for `CC[C@]1(C)CC(=O)N([C@H](CCOC)[C@@H]2C[C@H]2C(=O)NC2CC(C)(C)Oc3ccc(F)cc32)C(=N)N1` (single isomer, unassigned) [Example 130A]: 9.05.
On the same count and under the same terms, in the case of `CC[C@]1(C)CC(=O)N([C@H](CCOC)[C@@H]2C[C@H]2C(=O)NC2CC(C)(C)Oc3ccc(F)cc32)C(=N)N1` (single isomer, unassigned) [Example 130B] it was 8.62; in that of `CCC1C[C@H](NC(=O)[C@@H]2C[C@H]2CN2C(=N)NC(C)(C)CC2=O)c2ccccc2O1` (single isomer, unassigned) [Example 133A], 6.68; in that of `CCC1C[C@H](NC(=O)[C@@H]2C[C@H]2CN2C(=N)NC(C)(C)CC2=O)c2ccccc2O1` (single isomer, unassigned) [Example 133B], 7.00.
Regarding `CCC1(CC)CC(=O)N(CC2CC2C(=O)N[C@H]2CCOc3ccccc32)C(=N)N1` (some centres unmarked) [Example 4D], the pEC50 is 7.04. The pEC50 values of the last two molecules are within 0.2 log units of each other.
On the same count and under the same terms, in the case of `CCC1(CC)CC(=O)N(CC2C(C(=O)N[C@H]3CCOc4ccccc43)C2(F)F)C(=N)N1` (some centres unmarked) [Example 15B] it was 6.64.
On the same count and under the same terms, the same measure for `COCC[C@H]([C@@H]1C[C@H]1C(=O)N[C@H]1C[C@H](C(F)(F)F)Oc2ccccc21)N1C(=N)N[C@](C)(C(C)C)CC1=O` [Example 21A]: 6.59; for `COCC[C@H]([C@@H]1C[C@H]1C(=O)N[C@H]1C[C@H](C(F)(F)F)Oc2ccccc21)N1C(=N)N[C@](C)(C(C)C)CC1=O` [Example 21B]: 9.00.

Still in this assay, the particulars now being: 72 hours growth, LDH readout; Table 4 (unit inferred).
Molecule `CCC1(CC)CC(=O)N(C(CC(C)OC)[C@@H]2C[C@H]2C(=O)N[C@H]2CC(C)(C)Oc3ccccc32)C(=N)N1` (single isomer, unassigned) [Example 142A] had a pEC50 of 8.72.
With `CCC1(CC)CC(=O)N(C(CC(C)OC)[C@@H]2C[C@H]2C(=O)N[C@H]2CC(C)(C)Oc3ccccc32)C(=N)N1` (single isomer, unassigned) [Example 142B], the pEC50 is 9.15.
Take `CCC1(CC)CC(=O)N(C(CC(C)OC)[C@@H]2C[C@H]2C(=O)N[C@H]2CC(C)(C)Oc3ccccc32)C(=N)N1` (single isomer, unassigned) [Example 142C]: the pEC50 was 6.69.
Still for that read-out and setting: in the case of `CCC1(CC)CC(=O)N(C(CC(C)OC)[C@@H]2C[C@H]2C(=O)N[C@H]2CC(C)(C)Oc3ccccc32)C(=N)N1` (single isomer, unassigned) [Example 142D] it was 6.94.
Still for that read-out and setting: the same measure for `CCC1(CC)CC(=O)N(C(CC(C)OC)[C@@H]2C[C@H]2C(=O)N[C@@H]2CC(C)(C)Oc3ccccc32)C(=N)N1` (single isomer, unassigned) [Example 143A]: 8.34.
Consider `CCC1(CC)CC(=O)N(C(CC(C)OC)[C@@H]2C[C@H]2C(=O)N[C@@H]2CC(C)(C)Oc3ccccc32)C(=N)N1` (single isomer, unassigned) [Example 143B], for which the pEC50 is 8.62.
On the same count and under the same terms, the same measure for `CCC1(CC)CC(=O)N(C(CC(C)OC)[C@@H]2C[C@H]2C(=O)N[C@@H]2CC(C)(C)Oc3ccccc32)C(=N)N1` (single isomer, unassigned) [Example 143C]: 7.24; for `CCC1(CC)CC(=O)N([C@H](CCOC)[C@@H]2C[C@H]2C(=O)NC2CC(C)(C)Oc3cc(Cl)ccc32)C(=N)N1` (single isomer, unassigned) [Example 147A]: 8.55; for `CCC1(CC)CC(=O)N([C@H](CCOC)[C@@H]2C[C@H]2C(=O)NC2CC(C)(C)Oc3cc(Cl)ccc32)C(=N)N1` (single isomer, unassigned) [Example 147B]: 8.09.
